Targets include TYK2 (Homo sapiens, UniProt P29597); JAK1 (Homo sapiens, UniProt P23458); JAK2 (Homo sapiens, UniProt O60674).
Holding throughout (test): HotSpot radiometric kinase assay, purified recombinant human kinase, 10-dose IC50
Type in all cases: biochemical

The target of the next test is T1, JAK3 (Homo sapiens, UniProt P52333).
T1 sequence (P52333 1-1124): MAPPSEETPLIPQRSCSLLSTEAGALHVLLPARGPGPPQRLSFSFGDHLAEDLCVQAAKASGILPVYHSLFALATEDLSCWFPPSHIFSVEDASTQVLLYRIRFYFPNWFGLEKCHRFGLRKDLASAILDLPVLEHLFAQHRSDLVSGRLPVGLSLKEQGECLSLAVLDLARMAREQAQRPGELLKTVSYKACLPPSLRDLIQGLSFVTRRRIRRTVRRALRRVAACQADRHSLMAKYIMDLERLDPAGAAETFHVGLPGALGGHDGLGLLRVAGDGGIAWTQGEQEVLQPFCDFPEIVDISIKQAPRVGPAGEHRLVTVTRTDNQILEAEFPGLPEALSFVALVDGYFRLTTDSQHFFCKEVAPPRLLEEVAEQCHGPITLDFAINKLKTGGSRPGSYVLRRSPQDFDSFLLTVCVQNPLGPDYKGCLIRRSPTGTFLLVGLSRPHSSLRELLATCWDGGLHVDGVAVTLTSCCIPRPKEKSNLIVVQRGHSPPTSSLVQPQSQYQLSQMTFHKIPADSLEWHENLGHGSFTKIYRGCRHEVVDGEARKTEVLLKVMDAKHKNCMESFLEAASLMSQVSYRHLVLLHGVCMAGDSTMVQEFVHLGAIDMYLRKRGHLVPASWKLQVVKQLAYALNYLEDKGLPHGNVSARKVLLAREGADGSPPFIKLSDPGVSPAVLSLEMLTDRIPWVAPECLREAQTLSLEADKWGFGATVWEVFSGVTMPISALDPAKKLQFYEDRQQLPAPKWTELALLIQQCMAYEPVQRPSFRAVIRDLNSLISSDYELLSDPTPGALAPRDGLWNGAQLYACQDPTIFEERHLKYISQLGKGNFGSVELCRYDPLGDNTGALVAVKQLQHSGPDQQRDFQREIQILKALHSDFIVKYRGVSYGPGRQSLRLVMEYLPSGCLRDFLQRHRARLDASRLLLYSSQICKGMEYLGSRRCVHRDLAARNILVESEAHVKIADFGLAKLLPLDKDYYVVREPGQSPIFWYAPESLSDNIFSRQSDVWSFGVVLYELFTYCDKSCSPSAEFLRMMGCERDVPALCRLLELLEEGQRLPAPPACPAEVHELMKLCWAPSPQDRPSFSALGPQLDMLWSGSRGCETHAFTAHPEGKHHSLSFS

The source of these data is paper PMC5342759, “An inhibitor of cholesterol absorption displays anti-myeloma activity by targeting the JAK2-STAT3 signaling pathway” (Oncotarget, 2016).

Chain of TYK2 (P29597 whole entry): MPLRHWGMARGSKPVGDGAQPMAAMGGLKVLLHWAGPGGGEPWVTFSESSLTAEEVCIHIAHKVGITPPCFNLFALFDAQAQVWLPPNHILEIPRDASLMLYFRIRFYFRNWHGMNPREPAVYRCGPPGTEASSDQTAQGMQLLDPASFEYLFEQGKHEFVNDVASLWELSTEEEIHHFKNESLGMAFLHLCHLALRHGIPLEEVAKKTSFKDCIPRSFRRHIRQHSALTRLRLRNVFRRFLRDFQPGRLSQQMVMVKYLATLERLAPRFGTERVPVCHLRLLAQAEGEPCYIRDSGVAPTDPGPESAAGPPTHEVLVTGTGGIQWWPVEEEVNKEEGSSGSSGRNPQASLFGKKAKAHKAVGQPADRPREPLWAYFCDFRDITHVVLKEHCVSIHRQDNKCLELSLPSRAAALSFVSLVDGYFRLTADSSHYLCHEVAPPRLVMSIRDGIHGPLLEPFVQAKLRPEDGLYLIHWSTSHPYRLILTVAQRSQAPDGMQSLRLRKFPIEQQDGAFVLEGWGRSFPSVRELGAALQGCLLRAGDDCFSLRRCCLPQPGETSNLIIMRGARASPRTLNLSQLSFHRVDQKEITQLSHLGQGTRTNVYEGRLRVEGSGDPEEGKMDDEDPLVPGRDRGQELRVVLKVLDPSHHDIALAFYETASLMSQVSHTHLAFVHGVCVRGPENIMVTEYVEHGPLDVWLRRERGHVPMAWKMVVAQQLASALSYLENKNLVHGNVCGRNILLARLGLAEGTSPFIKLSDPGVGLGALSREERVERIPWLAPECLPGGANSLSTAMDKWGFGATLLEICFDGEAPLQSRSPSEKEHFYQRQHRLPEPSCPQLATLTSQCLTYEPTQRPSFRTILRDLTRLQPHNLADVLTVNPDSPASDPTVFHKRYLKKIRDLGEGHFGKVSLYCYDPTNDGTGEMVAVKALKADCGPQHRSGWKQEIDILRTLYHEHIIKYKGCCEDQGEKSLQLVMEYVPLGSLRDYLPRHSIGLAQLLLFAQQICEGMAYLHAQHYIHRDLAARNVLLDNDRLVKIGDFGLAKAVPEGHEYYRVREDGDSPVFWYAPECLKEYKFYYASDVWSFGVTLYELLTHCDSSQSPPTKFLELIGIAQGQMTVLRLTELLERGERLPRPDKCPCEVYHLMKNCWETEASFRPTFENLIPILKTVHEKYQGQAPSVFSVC
Chain of JAK2 (O60674 whole entry): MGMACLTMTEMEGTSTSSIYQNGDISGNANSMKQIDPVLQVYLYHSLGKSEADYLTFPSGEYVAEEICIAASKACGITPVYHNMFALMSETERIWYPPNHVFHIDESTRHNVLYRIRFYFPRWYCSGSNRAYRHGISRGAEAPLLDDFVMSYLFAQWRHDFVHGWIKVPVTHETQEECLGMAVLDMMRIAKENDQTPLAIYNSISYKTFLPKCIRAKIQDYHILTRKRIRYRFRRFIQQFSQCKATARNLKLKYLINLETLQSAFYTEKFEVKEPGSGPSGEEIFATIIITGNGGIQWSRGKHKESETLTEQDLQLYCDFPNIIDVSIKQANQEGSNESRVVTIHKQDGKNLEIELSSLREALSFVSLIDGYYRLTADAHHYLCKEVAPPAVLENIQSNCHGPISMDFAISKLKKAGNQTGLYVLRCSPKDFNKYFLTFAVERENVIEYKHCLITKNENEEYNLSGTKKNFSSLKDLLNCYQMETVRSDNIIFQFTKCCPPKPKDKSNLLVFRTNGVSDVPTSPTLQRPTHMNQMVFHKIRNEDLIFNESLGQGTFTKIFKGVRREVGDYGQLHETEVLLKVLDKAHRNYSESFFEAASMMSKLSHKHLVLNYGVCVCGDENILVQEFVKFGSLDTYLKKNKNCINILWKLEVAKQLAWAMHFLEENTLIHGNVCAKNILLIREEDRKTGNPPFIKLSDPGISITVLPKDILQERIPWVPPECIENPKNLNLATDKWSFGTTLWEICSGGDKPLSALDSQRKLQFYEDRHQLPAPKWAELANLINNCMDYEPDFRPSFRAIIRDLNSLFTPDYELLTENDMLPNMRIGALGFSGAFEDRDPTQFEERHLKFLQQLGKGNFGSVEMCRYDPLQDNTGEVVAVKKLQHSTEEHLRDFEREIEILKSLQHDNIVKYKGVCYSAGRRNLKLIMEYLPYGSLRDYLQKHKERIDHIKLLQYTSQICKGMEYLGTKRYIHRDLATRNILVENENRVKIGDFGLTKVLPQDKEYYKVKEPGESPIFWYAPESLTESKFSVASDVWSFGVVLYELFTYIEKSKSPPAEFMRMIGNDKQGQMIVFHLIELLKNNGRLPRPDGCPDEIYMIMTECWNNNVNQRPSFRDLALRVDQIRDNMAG
Chain of JAK1 (P23458 whole entry): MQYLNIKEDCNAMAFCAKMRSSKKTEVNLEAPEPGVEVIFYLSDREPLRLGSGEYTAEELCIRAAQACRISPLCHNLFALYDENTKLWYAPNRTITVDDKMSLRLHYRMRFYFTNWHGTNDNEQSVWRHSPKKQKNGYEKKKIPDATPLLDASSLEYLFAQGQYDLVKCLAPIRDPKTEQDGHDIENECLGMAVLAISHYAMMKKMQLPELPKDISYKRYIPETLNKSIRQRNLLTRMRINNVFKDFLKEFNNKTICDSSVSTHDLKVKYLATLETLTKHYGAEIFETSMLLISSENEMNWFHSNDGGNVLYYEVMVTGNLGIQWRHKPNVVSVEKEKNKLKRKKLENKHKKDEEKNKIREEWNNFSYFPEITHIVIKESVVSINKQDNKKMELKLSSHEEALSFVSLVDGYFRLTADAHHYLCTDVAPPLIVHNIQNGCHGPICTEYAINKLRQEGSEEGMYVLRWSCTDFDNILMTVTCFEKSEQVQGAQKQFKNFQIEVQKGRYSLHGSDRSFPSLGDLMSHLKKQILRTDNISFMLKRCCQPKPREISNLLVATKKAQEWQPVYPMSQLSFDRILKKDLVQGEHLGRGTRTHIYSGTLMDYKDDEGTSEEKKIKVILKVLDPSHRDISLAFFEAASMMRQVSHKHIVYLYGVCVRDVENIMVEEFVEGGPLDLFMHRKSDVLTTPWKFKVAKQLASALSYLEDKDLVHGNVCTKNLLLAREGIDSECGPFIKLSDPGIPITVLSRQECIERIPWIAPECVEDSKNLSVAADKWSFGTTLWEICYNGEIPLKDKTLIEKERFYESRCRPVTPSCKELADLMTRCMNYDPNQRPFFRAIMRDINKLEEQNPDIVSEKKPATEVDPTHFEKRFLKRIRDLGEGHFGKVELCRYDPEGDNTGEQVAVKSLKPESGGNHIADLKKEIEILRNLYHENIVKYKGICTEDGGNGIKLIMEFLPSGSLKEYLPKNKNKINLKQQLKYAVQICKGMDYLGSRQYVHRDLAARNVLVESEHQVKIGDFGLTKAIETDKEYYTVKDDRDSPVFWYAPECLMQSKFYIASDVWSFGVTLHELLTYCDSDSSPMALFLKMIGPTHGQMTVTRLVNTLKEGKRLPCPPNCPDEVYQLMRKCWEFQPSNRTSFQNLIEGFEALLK

By IC50 is commonly meant the concentration needed to halve the response being measured. For the compound `N#C/C(=N\Nc1ccc(C(F)(F)F)cc1)S(=O)(=O)c1cccs1` [SC09], the IC50 was determined as 111 µM on TYK2, 153 µM on JAK1, 8.88 µM at JAK2 and 139 µM at JAK3.
